Results on 17 molecules are retold here after PubChem BioAssay (NCI).

Where “and” joins values, the source holds several entries; their conditions need not be identical. Equal entries are not always repeated.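 Interpolation was linear, between the two tested concentrations surrounding the appropriate level; five concentrations were tested over 48 hours in 96-well plates. Abbreviation: GI50, concentration required for 50% inhibition of growth. TGI is the concentration that stops growth completely.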

The first experiment relates to SK-MEL-28 melanoma. In words: growth of human tumour cells (NCI), 48 h.
`COc1c(OC)c(OC)c(C(=O)/C=C/c2ccccc2)c(OC)c1OC` yielded a TGI of 27.3 µM.
Regarding `CS(=O)(=O)CCCn1c(=O)c(Oc2ccc(F)cc2F)cc2cnc(NC3CCOCC3)nc21`, the GI50 is more than 25 µM and the TGI is more than 25 µM.
`O=C(CC(O)(C(F)(F)F)C(F)(F)F)c1cc(CC(=O)C(O)(C(F)(F)F)C(F)(F)F)cc(CC(=O)C(O)(C(F)(F)F)C(F)(F)F)c1` yielded a TGI of more than 5.88 µM.
`Cc1cn2c(/C=C3\C(=O)Nc4ccc(O)cc43)c(-c3ccc(Cl)cc3)nc2s1`: the GI50 was 12.2 µM and the TGI turned out to be 28.1 µM.
Turning to `O=C(c1c(F)ccc(NS(=O)(=O)N2CC[C@@H](F)C2)c1F)c1c[nH]c2ncc(-c3cnc(C4CC4)nc3)cc12`, the GI50 was 0.00375 µM and < 0.01 µM; the TGI was 0.194 µM and 0.599 µM.
`O=C(c1ccc(Cl)cc1)c1cnc(Nc2ccccc2Cl)s1` registered a TGI of 23.4 µM.
In turn, `Nc1nc(N)c(N=Nc2ccc([As](=O)(O)O)cc2)c(=O)[nH]1` gave a TGI of more than 100 µM.
With `C=CC(=O)N1CCC(C2CCNc3c(C(N)=O)c(-c4ccc(Oc5ccccc5)cc4)nn32)CC1` (stereo not given), the GI50 was 18.7 µM and the TGI was found to be 45.1 µM.
In the same order, the values of `CCCCCCNC(=O)c1nc(-c2ccccc2)oc1Cc1ccc(OP(=O)(O)O)cc1` are 15.9 µM and 30.1 µM.

The test system of the next experiment is UACC-62 melanoma. In words: growth of human tumour cells (NCI), 48 h.
For `COc1ccc(-c2oc(=O)ccc2-c2cc(OC)c(OC)c(OC)c2)cc1F`, the GI50 is 10.2 µM and the TGI was more than 100 µM.
Regarding `O=C(c1ccc(F)c(F)c1Nc1ccc(I)cc1F)N1CC(O)([C@@H]2CCCCN2)C1`, the GI50 is < 0.01 µM and 0.00339 µM; the TGI is < 0.0158 µM and 0.0384 µM.
`Oc1cc(O)c2c(c1)OC(c1ccc(O)c(O)c1)C(OC1(c3cc(O)c(O)c(O)c3)Oc3cc(O)cc(O)c3C(O)C1O)C2` (stereo not given): the TGI was more than 100 µM.
`CCOc1ccc2nc(S/C(=C/C=C(C#N)C#N)c3ccc(C)cc3)sc2c1`: the GI50 is 22 µM and the TGI stood at 54.1 µM.
On the same counts, the results for `COc1cc(CNCCCN2C(=O)c3ccc4c5c(ccc(c35)C2=O)C(=O)N(CCCNCc2cc(OC)c(OC)c(OC)c2)C4=O)cc(OC)c1OC` are 0.793 µM and 1.57 µM.
On the same counts, the results for `Cc1nc2cnc(N)c(C#Cc3cncc(C(=O)Nc4ccc(CN5CCN(C)CC5)c(C(F)(F)F)c4)c3)c2nc1C` are 0.116 µM and 1.07 µM.
Molecule `O=C1NC(=S)NNC12c1ccccc1-c1ccccc12` returned a TGI of more than 10 µM.
In the case of `Cc1csc(Nc2nc(-c3cccc(Br)c3)nc(C(Cl)(Cl)Cl)n2)n1`, the GI50 is 3.35 µM and the TGI is more than 100 µM.
As for `COc1c(OC)c(OC)c(C(=O)/C=C/c2ccccc2)c(OC)c1OC`, the TGI came out at 24.2 µM.
`CS(=O)(=O)CCCn1c(=O)c(Oc2ccc(F)cc2F)cc2cnc(NC3CCOCC3)nc21`: the GI50 was more than 25 µM and the TGI was more than 25 µM.
Molecule `O=C(CC(O)(C(F)(F)F)C(F)(F)F)c1cc(CC(=O)C(O)(C(F)(F)F)C(F)(F)F)cc(CC(=O)C(O)(C(F)(F)F)C(F)(F)F)c1` gave a TGI of 4.11 µM.
`Cc1cn2c(/C=C3\C(=O)Nc4ccc(O)cc43)c(-c3ccc(Cl)cc3)nc2s1`: the GI50 was 9.4 µM and the TGI came out at 56.2 µM.
Turning to `O=C(c1c(F)ccc(NS(=O)(=O)N2CC[C@@H](F)C2)c1F)c1c[nH]c2ncc(-c3cnc(C4CC4)nc3)cc12`, the GI50 was 0.0033 µM and < 0.01 µM; the TGI was 0.13 µM and 0.123 µM.
In turn, `O=C(c1ccc(Cl)cc1)c1cnc(Nc2ccccc2Cl)s1` showed a TGI of 66.4 µM.
Still for that read-out and setting: under `Nc1nc(N)c(N=Nc2ccc([As](=O)(O)O)cc2)c(=O)[nH]1` stands more than 100 µM.
With `C=CC(=O)N1CCC(C2CCNc3c(C(N)=O)c(-c4ccc(Oc5ccccc5)cc4)nn32)CC1` (stereo not given), the GI50 is 10.6 µM and the TGI came out at 27 µM.
In the same order, the values of `CCCCCCNC(=O)c1nc(-c2ccccc2)oc1Cc1ccc(OP(=O)(O)O)cc1` are 14 µM and 27.9 µM.

The next experiment deals with T-47D breast. In words: growth of human tumour cells (NCI), 48 h.
For the molecule `COc1ccc(-c2oc(=O)ccc2-c2cc(OC)c(OC)c(OC)c2)cc1F`, the GI50 is 23.9 µM and the TGI is more than 100 µM.
`O=C(c1ccc(F)c(F)c1Nc1ccc(I)cc1F)N1CC(O)([C@@H]2CCCCN2)C1`: the GI50 was 9.05 µM and > 10 µM; the TGI was 23.1 µM and > 10 µM.
As for `Oc1cc(O)c2c(c1)OC(c1ccc(O)c(O)c1)C(OC1(c3cc(O)c(O)c(O)c3)Oc3cc(O)cc(O)c3C(O)C1O)C2` (stereo not given), the TGI is more than 100 µM.
With `CCOc1ccc2nc(S/C(=C/C=C(C#N)C#N)c3ccc(C)cc3)sc2c1`, the GI50 was 42.4 µM and the TGI is more than 100 µM.
On the same counts, the results for `COc1cc(CNCCCN2C(=O)c3ccc4c5c(ccc(c35)C2=O)C(=O)N(CCCNCc2cc(OC)c(OC)c(OC)c2)C4=O)cc(OC)c1OC` are 0.38 µM and 1.12 µM.
On the same counts, the results for `Cc1nc2cnc(N)c(C#Cc3cncc(C(=O)Nc4ccc(CN5CCN(C)CC5)c(C(F)(F)F)c4)c3)c2nc1C` are 3.35 µM and 26 µM.
In turn, `O=C1NC(=S)NNC12c1ccccc1-c1ccccc12` showed a TGI of more than 10 µM.
For the molecule `Cc1csc(Nc2nc(-c3cccc(Br)c3)nc(C(Cl)(Cl)Cl)n2)n1`, the GI50 was 1.38 µM and the TGI is more than 26.8 µM.
Molecule `COc1c(OC)c(OC)c(C(=O)/C=C/c2ccccc2)c(OC)c1OC` displayed a TGI of 23.7 µM.
For the molecule `CS(=O)(=O)CCCn1c(=O)c(Oc2ccc(F)cc2F)cc2cnc(NC3CCOCC3)nc21`, the GI50 was more than 25 µM and the TGI is more than 25 µM.
For the molecule `O=C(CC(O)(C(F)(F)F)C(F)(F)F)c1cc(CC(=O)C(O)(C(F)(F)F)C(F)(F)F)cc(CC(=O)C(O)(C(F)(F)F)C(F)(F)F)c1`, the TGI was determined as 4.26 µM.
For the molecule `Cc1cn2c(/C=C3\C(=O)Nc4ccc(O)cc43)c(-c3ccc(Cl)cc3)nc2s1`, the GI50 is 8.96 µM and the TGI is 30.2 µM.
For `O=C(c1c(F)ccc(NS(=O)(=O)N2CC[C@@H](F)C2)c1F)c1c[nH]c2ncc(-c3cnc(C4CC4)nc3)cc12`, the GI50 was 2.91 µM and 2.43 µM; the TGI was > 10 µM and 16.5 µM.
`O=C(c1ccc(Cl)cc1)c1cnc(Nc2ccccc2Cl)s1`: the TGI is 47.9 µM.
Still for that read-out and setting: in the case of `Nc1nc(N)c(N=Nc2ccc([As](=O)(O)O)cc2)c(=O)[nH]1` it was more than 100 µM.
On to `C=CC(=O)N1CCC(C2CCNc3c(C(N)=O)c(-c4ccc(Oc5ccccc5)cc4)nn32)CC1` (stereo not given), for which the GI50 is 1.4 µM and the TGI turned out to be 28.4 µM.
Consider `CCCCCCNC(=O)c1nc(-c2ccccc2)oc1Cc1ccc(OP(=O)(O)O)cc1`, for which the GI50 is 16.5 µM and the TGI turned out to be 30.8 µM.
